Results taken from the METLIN SMRT retention time set (Domingo-Almenara et al. 2019).

experiment: gradient 5% acetonitrile 3 min, to 50% in 2 min, to 85% in 15 min, held 3 min, 100 µL/min; conditions: column: Zorbax Extend-C18 2.1 x 50 mm; eluents: water / acetonitrile, 0.1% formic acid
Summary of the method: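 Mixtures of ~100 pure standards were chromatographed on a Zorbax Extend-C18 column (2.1 × 50 mm, 1.8 μm) at 100 μL/min using water and acetonitrile, each with 0.1% formic acid. Detection used a quadrupole time-of-flight mass spectrometer in positive and negative ionization mode, and data collection spanned 3 months. Retention time was obtained from adduct peaks picked computationally and each checked manually.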

| SMILES | RP-LC retention time |
| --- | --- |
| CCn1cc(-c2nc(C(=O)NCc3cccc(C)c3)cs2)c2cccnc21 | 1060 s |
| CCn1nccc1-c1cccc(-c2noc(-c3ccc(OC)cc3C)n2)c1 | 1300 s |
| Cc1n[nH]c(C)c1CCC(=O)N1CCCn2ccnc2C1C1CCCC1 (configuration not stated) | 559 s |
| CC(C)(CO)NCc1ccc(-c2ccc(Cl)cc2)o1 | 655 s |
| CCOc1cc(Cl)c(S(=O)(=O)Nc2cccnc2)cc1Cl | 717 s |
| O=C(NCC1CCN(C(=O)COc2ccccc2)CC1)c1ccc(Br)o1 | 722 s |
| COc1ccccc1OCC(=O)NCCc1sc(-c2ccc(Cl)cc2)nc1C | 953 s |
| Cc1nc(-c2cnccn2)nc2c1CCC(=O)N2CCC1=CCCCC1 | 876 s |
| Cc1ccc(NC(=O)C2CC(=O)N(c3n[nH]c4cccc(F)c34)C2)nc1 (configuration not stated) | 606 s |
| O=C(Nc1ncnc2c1CCC2)c1ccc(S(=O)(=O)N2CCc3ccccc3C2)cc1 | 783 s |
| COCC1CN(C(=O)c2ccco2)CCC1(F)F (configuration not stated) | 759 s |
| O=C(NCCc1csc(-c2ccccc2)n1)C1CCN(S(=O)(=O)c2ccc(F)cc2)CC1 | 928 s |
| COc1ncccc1CNC(=O)CCc1ccccc1 | 738 s |
| c1ccc(-c2noc(-c3ccc(N4CCN(C5CCCCC5)CC4)nc3)n2)cc1 | 772 s |
| Cc1ccc(C)c(N2CCN(S(=O)(=O)c3cc(-c4nnc(C5CC5)o4)co3)CC2)c1 | 1140 s |
| CCOC(=O)c1cnc2nc(-c3ccccc3)nn2c1C | 917 s |
| COc1ccc(C(=O)Nc2nnc(SCc3nnc(-c4ccc5c(c4)OCO5)o3)s2)cc1OC | 834 s |
| CC(C)NCc1ccc(-c2ccccc2Cl)o1 | 673 s |
| CC(=O)c1cccc(NC(=O)c2sc3ccccc3c2Cl)c1 | 988 s |
| COc1ccc(OCc2noc(CNC(=O)NCc3cccs3)n2)cc1 | 737 s |

| SMILES | RP-LC retention time |
| --- | --- |
| COCCCn1cc(C(=O)N2CCc3ccccc3C2)c2nn(-c3ccccc3)c(=O)c-2c1 | 770 s |
| O=C(C1CCN(c2cnn(Cc3ccccc3)c(=O)c2)CC1)N1CCSCC1 | 648 s |
| COc1cc(NC(=O)Nc2c(-c3ccc(F)cc3)nc3ccccn23)cc(OC)c1 | 678 s |
| O=C(Cn1ccc2ccccc21)NCCn1ncccc1=O | 625 s |
| O=C(Nc1nnc(C(F)(F)F)s1)C1CCN(C(=O)c2ccc(F)cc2)CC1 | 815 s |
| O=C(Cn1c(=O)n(Cc2ccc3c(c2)OCO3)c(=O)c2ncccc21)c1ccccc1 | 818 s |
| O=S(=O)(c1ccc(Br)cc1)N1CCSC1c1ccco1 (configuration not stated) | 965 s |
| Cc1cccc2c(=O)n(C3CCN(S(=O)(=O)c4ccccc4)CC3)cnc12 | 921 s |
| CCn1nccc1-c1cccc(-c2noc(-c3ccc(C)s3)n2)c1 | 1250 s |
| CN1C(=O)C(c2c(-c3ccccc3)[nH]c3[nH]c(=O)[nH]c(=O)c23)c2ccccc21 (configuration not stated) | 668 s |
| CCCn1cnc2ccc(-c3noc(-c4cccc(F)c4)n3)cc21 | 873 s |
| COCCN1C(=O)c2ccccc2C(C(=O)NCCCc2ccccc2)C12CCCC2 (configuration not stated) | 944 s |
| CCn1nccc1C(=O)NC1CCCCC1 | 718 s |
| Cc1nnc(N2CCCC(C(=O)NCc3ccc(Cl)cc3)C2)c2nn(-c3ccccc3)c(C)c12 (configuration not stated) | 760 s |
| CCCCSc1ncnc2[nH]ncc12 | 919 s |
| O=C(Nc1ccc(Cl)c(C(F)(F)F)c1)C(=O)c1ccc[nH]1 | 1050 s |
| COc1ccc(NS(=O)(=O)c2c(C)nn(-c3ccc(-c4ccc(C)c(C)c4)nn3)c2C)cc1OC | 1050 s |
| Cc1ccc(-c2noc(-c3sccc3NC(=O)C3(c4ccccc4)CC3)n2)cc1 | 828 s |
| O=C(Cn1ncc2c(c1=O)N(C1CC1)C(=O)CS2)NCCC1=CCCCC1 | 754 s |

Second part, the compound after the results:

| RP-LC retention time | SMILES |
| --- | --- |
| 843 s | Cc1cc(Cl)ccc1NC(=O)C1CC(=O)N(c2ccc3c(c2)CCN3C(=O)C2CC2)C1 (configuration not stated) |
| 951 s | Cc1ccc(NC(=O)N2CCN(c3nc4cccnc4n(C)c3=O)CC2)cc1Cl |
| 910 s | O=C(NCc1ccc(F)cc1)c1nnc(-c2ccc(S(=O)(=O)N3CCOCC3)cc2)o1 |
| 613 s | COc1ccc(-c2ccc(N3CCCC(C(=O)NCc4cccs4)C3)nn2)cc1 (configuration not stated) |
| 1240 s | CCc1cccc(NC(=O)Cn2nc(N3CCCC(C)C3)c3ccccc3c2=O)c1 (configuration not stated) |
| 591 s | CCNc1ncnc2sc3c(c12)CCN(C(=O)c1ccncc1)C3 |
| 748 s | CCCC(=O)Nc1ccc2c(c1)CN(C(=O)c1ccc(Cl)cc1)C(C(=O)N(C)C)C2 (configuration not stated) |
| 620 s | COc1ccc(C(=O)N2CC(n3cc(COCC4CC4)nn3)C2)cc1F |
| 603 s | CC(C)c1ccccc1NS(=O)(=O)c1cc(-c2nc(C(C)(C)C)cs2)cs1 |
| 836 s | CC(C)c1ccc(N2C(=O)CN(S(C)(=O)=O)CC2(C)C(=O)NCc2ccc(F)cc2)cc1 (configuration not stated) |
| 794 s | CCCC(=O)N1CCC(C(=O)N2c3ccccc3CC2C)CC1 (configuration not stated) |
| 678 s | CCN1C(=O)c2c(C(=O)N3CCOCC3)ncn2CC1(C)C(=O)NCc1ccc(F)cc1 (configuration not stated) |
| 935 s | CCOc1ccc(N2CC(c3nnc(NC(=O)c4ccc(C(C)(C)C)cc4)o3)CC2=O)cc1 (configuration not stated) |
| 603 s | O=C(Nc1cccnc1)C1CCCN(c2ncnc3c2nc2n3CCCCC2)C1 (configuration not stated) |
| 877 s | Cc1cc(C)cc(N2CCC(NC(=O)CC(C)(C)C)C2=O)c1 (configuration not stated) |
| 702 s | CC(C)CNC(=O)c1cn(-c2ccc(NC(=O)C(C)C)cn2)cn1 |
| 775 s | CC(=O)Nc1ccc(S(=O)(=O)N2CCc3c(c(-c4nnc(-c5ccccc5)o4)nn3C)C2)cc1 |
| 799 s | Cc1c(C)n(-c2ccccc2)c2ncn(CC(=O)NC3CCCC3)c(=O)c12 |
| 845 s | O=C(Nc1ccc2c(c1)OCCO2)c1cccc(-c2cnc(N3CCCC3)nc2)c1 |
| 794 s | CCc1cccc(NC(=O)C2CCN(S(=O)(=O)c3cn(CC)cn3)CC2)c1 |
| 983 s | CCC(=O)N(C1CCOCC1)C1CCN(S(=O)(=O)c2ccc(C(C)C)cc2)CC1 |
| 958 s | Cc1nc(-c2cn(C(C)C)c3ncccc23)sc1C(=O)N1CCCCC1 |
| 1070 s | COc1ccc(-c2nc(-c3ccc4c(c3)oc(=O)n4C(C)C)no2)cc1 |
| 1060 s | O=C(Nc1ccccc1F)N1CCCC1c1nc(-c2cccc(Cl)c2)no1 (configuration not stated) |
| 870 s | CC1=C(c2ccccc2)S(=O)(=O)N=C1N1CCCN(C(=O)c2cc(C)ccc2C)CC1 |
| 665 s | c1csc(-c2nc(-c3ccnc(N4CCCC4)c3)no2)c1 |
| 830 s | CC(Cc1ccco1)NC(=O)CC1CCN(C(=O)c2ccc3nc(-c4ccccc4)oc3c2)CC1 (configuration not stated) |
| 630 s | CC(C)CC(=O)Nc1ccc2c(c1)nc(CN1CCOCC1)n2C(C)C |
